Laboratory results: US12139520B2 (priority 2020, dated 2024)
Bridge positions count the residues as written; N and C are the ends. Square brackets hold non-standard residues; d marks the D form. Peptide text beside a SMILES is read from it. Hyp = O=C(O)[C@@H]1C[C@@H](O)CN1

Columns and labels:
[1] = Physical stability of peptide analogues (Thioflavin T fibrillation); assay type: physicochemical; settings: maximum ThT signal normalized between hAMY maximum and buffer background; 40° C., shaking, four days; pH 7 per table title
Summary of the method: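 Samples are stressed at 40 °C for four days, being shaken at 700 rpm before each 10-min fluorescence reading of 4 μM Thioflavin T. Buffers were pH 4 acetate or pH 7 phosphate. Reported values are smoothed maximum ThT signals as a percentage of the hAMY-to-background range.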

hAMY3 receptor = biological target: T1, hAMY3 receptor (Homo sapiens, UniProt O60896+P30988); assay: cAMP assay for in vitro receptor activation, hAMY3-R; assay type: cell-based; settings: cAMP assay, hAMY3 receptor; read-out: hAMY3R EC50
T1 sequence (P30988 25-474): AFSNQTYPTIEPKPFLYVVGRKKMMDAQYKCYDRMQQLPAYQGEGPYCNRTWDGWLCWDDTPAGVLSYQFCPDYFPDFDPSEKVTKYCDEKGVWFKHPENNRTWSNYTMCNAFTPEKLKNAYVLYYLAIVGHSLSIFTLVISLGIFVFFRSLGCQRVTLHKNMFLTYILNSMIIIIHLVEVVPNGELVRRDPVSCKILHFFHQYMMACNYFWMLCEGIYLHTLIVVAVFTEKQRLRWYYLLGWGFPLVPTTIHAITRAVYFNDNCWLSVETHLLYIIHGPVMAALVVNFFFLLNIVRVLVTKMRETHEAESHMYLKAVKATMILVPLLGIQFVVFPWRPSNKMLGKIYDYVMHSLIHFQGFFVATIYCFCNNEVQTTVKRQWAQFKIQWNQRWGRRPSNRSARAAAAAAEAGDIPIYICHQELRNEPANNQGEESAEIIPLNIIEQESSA
T1 sequence (O60896 24-148 partner): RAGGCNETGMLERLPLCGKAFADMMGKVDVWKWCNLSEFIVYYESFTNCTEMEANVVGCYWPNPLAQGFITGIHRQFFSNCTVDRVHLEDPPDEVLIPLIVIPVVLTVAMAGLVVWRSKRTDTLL
Summary of the method: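 Monoclonal cell line stably overexpressing hAMY3 receptor, plated in DPBS with 0.05% casein and 0.5 mM IBMX, was stimulated with graded compound doses for 30 min at room temperature. cAMP accumulation was read by time-resolved FRET one hour after adding detection reagents.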

Structure (SMILES) | Max ThT signal (%) [1] [%] | EC50 (hAMY3 receptor) [nM]
CC[C@H](C)[C@H](NC(=O)[C@H](CCC(N)=O)NC(=O)[C@H](Cc1c[nH]cn1)NC(=O)[C@H](C)NC(=O)[C@H](CC(C)C)NC(=O)[C@H](CCCNC(=N)N)NC(=O)[C@H](CCC(N)=O)NC(=O)[C@@H](NC(=O)[C@@H](NC(=O)[C@@H]1CSSC[C@H](NC(=O)CN)C(=O)N[C@@H](CCCNC(=N)N)C(=O)N[C@@H]([C@@H](C)O)C(=O)NCC(=O)N[C@@H]([C@@H](C)O)C(=O)N1)[C@@H](C)O)C(C)C)C(=O)N[C@@H](Cc1ccc(O)cc1)C(=O)N[C@@H](CCC(N)=O)C(=O)N[C@@H](Cc1ccccc1)C(=O)N[C@H](C(=O)N[C@@H](CC(=O)O)C(=O)N[C@@H](CCCCN)C(=O)N[C@@H](CC(=O)O)C(=O)N[C@@H](CCCCN)C(=O)N[C@@H](CC(=O)O)C(=O)N[C@@H](CC(N)=O)C(=O)N[C@H](C(=O)N[C@@H](C)C(=O)N1CCC[C@H]1C(=O)N[C@@H](CCCNC(=N)N)C(=O)N[C@@H](CO)C(=O)N[C@@H](CC(N)=O)C(=O)N[C@H](C(=O)N[C@@H](CO)C(=O)N1CCC[C@H]1C(=O)N[C@@H](CCC(N)=O)C(=O)NCC(=O)N1C[C@H](O)C[C@H]1C(N)=O)C(C)C)C(C)C)[C@@H](C)O [compound 224] (H-GCRTGTCTVQRLAHQIYQFTDKDKDNVAPRSNVSPQG[Hyp]-NH2; disulfide 2-7; N-terminus assumed) | 2.000 | 0.186
CC[C@H](C)[C@H](NC(=O)[C@H](CCC(N)=O)NC(=O)[C@H](Cc1c[nH]cn1)NC(=O)[C@H](C)NC(=O)[C@H](CC(C)C)NC(=O)[C@H](CCCNC(=N)N)NC(=O)[C@H](CCC(N)=O)NC(=O)[C@@H](NC(=O)[C@@H](NC(=O)[C@@H]1CSSC[C@H](NC(=O)CN)C(=O)N[C@@H](CCCNC(=N)N)C(=O)N[C@@H]([C@@H](C)O)C(=O)NCC(=O)N[C@@H]([C@@H](C)O)C(=O)N1)[C@@H](C)O)C(C)C)C(=O)N[C@@H](Cc1ccc(O)cc1)C(=O)N[C@@H](CCC(N)=O)C(=O)N[C@@H](Cc1ccccc1)C(=O)N[C@H](C(=O)N[C@@H](CC(=O)O)C(=O)N[C@@H](CCCCN)C(=O)N[C@@H](CC(=O)O)C(=O)N[C@@H](CCCCN)C(=O)N[C@@H](CC(=O)O)C(=O)N[C@@H](CC(N)=O)C(=O)N[C@H](C(=O)N[C@@H](C)C(=O)N1CCC[C@H]1C(=O)N[C@@H](CCCNC(=N)N)C(=O)N[C@H](C(=O)N[C@@H](CCCCN)C(=O)N[C@H](C(=O)NCC(=O)N1CCC[C@H]1C(=O)N[C@@H](CCC(N)=O)C(=O)NCC(=O)N[C@@H](Cc1ccc(O)cc1)C(N)=O)C(C)C)[C@@H](C)O)C(C)C)[C@@H](C)O [compound 156] (H-GCRTGTCTVQRLAHQIYQFTDKDKDNVAPRTKVGPQGY-NH2; disulfide 2-7; N-terminus assumed) | 15.300 | 0.047
CC[C@H](C)[C@H](NC(=O)[C@H](CCC(N)=O)NC(=O)[C@H](Cc1c[nH]cn1)NC(=O)[C@H](C)NC(=O)[C@H](CC(C)C)NC(=O)[C@H](CCCNC(=N)N)NC(=O)[C@H](CCC(N)=O)NC(=O)[C@@H](NC(=O)[C@@H](NC(=O)[C@@H]1CSSC[C@H](NC(=O)CN)C(=O)N[C@@H](CCCNC(=N)N)C(=O)N[C@@H](Cc2ccccc2)C(=O)NCC(=O)N[C@@H]([C@@H](C)O)C(=O)N1)[C@@H](C)O)C(C)C)C(=O)N[C@@H](Cc1ccc(O)cc1)C(=O)N[C@@H](CCC(N)=O)C(=O)N[C@@H](Cc1ccccc1)C(=O)N[C@H](C(=O)N[C@@H](CC(=O)O)C(=O)N[C@@H](CCCCN)C(=O)N[C@@H](CC(=O)O)C(=O)N[C@@H](CCCCN)C(=O)N[C@@H](CC(=O)O)C(=O)N[C@@H](CC(N)=O)C(=O)N[C@H](C(=O)N[C@@H](C)C(=O)N1CCC[C@H]1C(=O)N[C@@H](CCCNC(=N)N)C(=O)N[C@H](C(=O)N[C@@H](CC(N)=O)C(=O)N[C@H](C(=O)N[C@@H](CO)C(=O)N1CCC[C@H]1C(=O)N[C@@H](CC(N)=O)C(=O)NCC(=O)N[C@@H](Cc1ccc(O)cc1)C(N)=O)C(C)C)[C@@H](C)O)C(C)C)[C@@H](C)O [compound 98] (H-GCRFGTCTVQRLAHQIYQFTDKDKDNVAPRTNVSPNGY-NH2; disulfide 2-7; N-terminus assumed) | 12.600 | 0.017
CC[C@H](C)[C@H](NC(=O)[C@H](CCC(N)=O)NC(=O)[C@H](Cc1c[nH]cn1)NC(=O)[C@H](C)NC(=O)[C@H](CC(C)C)NC(=O)[C@H](CCCNC(=N)N)NC(=O)[C@H](CCC(N)=O)NC(=O)[C@@H](NC(=O)[C@@H](NC(=O)[C@@H]1CSSC[C@H](NC(=O)CN)C(=O)N[C@@H](CCCNC(=N)N)C(=O)N[C@@H]([C@@H](C)O)C(=O)NCC(=O)N[C@@H]([C@@H](C)O)C(=O)N1)[C@@H](C)O)C(C)C)C(=O)N[C@@H](Cc1ccc(O)cc1)C(=O)N[C@@H](CCC(N)=O)C(=O)N[C@@H](Cc1ccccc1)C(=O)N[C@H](C(=O)N[C@@H](CC(=O)O)C(=O)N[C@@H](CCCCN)C(=O)N[C@@H](CC(=O)O)C(=O)N[C@@H](CCCCN)C(=O)N[C@@H](CC(=O)O)C(=O)N[C@@H](CC(N)=O)C(=O)N[C@H](C(=O)N[C@@H](C)C(=O)N1CCC[C@H]1C(=O)N[C@@H](CCCNC(=N)N)C(=O)N[C@H](C(=O)N[C@@H](CCCCN)C(=O)N[C@H](C(=O)N[C@@H](CO)C(=O)N1CCC[C@H]1C(=O)N[C@@H](CC(N)=O)C(=O)NCC(=O)N[C@@H](Cc1ccc(O)cc1)C(N)=O)[C@@H](C)CC)[C@@H](C)O)C(C)C)[C@@H](C)O [compound 190] (H-GCRTGTCTVQRLAHQIYQFTDKDKDNVAPRTKISPNGY-NH2; disulfide 2-7) | 12.900 | –
CC[C@H](C)[C@H](NC(=O)[C@H](CCC(N)=O)NC(=O)[C@H](Cc1c[nH]cn1)NC(=O)[C@H](C)NC(=O)[C@H](CC(C)C)NC(=O)[C@H](CCCNC(=N)N)NC(=O)[C@H](CCC(N)=O)NC(=O)[C@@H](NC(=O)[C@@H](NC(=O)[C@@H]1CSSC[C@H](NC(=O)CN)C(=O)N[C@@H](CCCNC(=N)N)C(=O)N[C@@H]([C@@H](C)O)C(=O)NCC(=O)N[C@@H]([C@@H](C)O)C(=O)N1)[C@@H](C)O)C(C)C)C(=O)N[C@@H](Cc1ccc(O)cc1)C(=O)N[C@@H](CCC(N)=O)C(=O)N[C@@H](Cc1ccccc1)C(=O)N[C@H](C(=O)N[C@@H](CC(=O)O)C(=O)N[C@@H](CCCCN)C(=O)N[C@@H](Cc1ccccc1)C(=O)N[C@@H](CCCCN)C(=O)N[C@@H](CC(=O)O)C(=O)N[C@@H](CC(N)=O)C(=O)N[C@H](C(=O)N[C@@H](C)C(=O)N1CCC[C@H]1C(=O)N[C@@H](CCCNC(=N)N)C(=O)N[C@@H](CO)C(=O)N[C@@H](CCCCN)C(=O)N[C@H](C(=O)N[C@@H](CO)C(=O)N1CCC[C@H]1C(=O)N[C@@H](CCC(N)=O)C(=O)N[C@H](C(=O)N[C@@H](C)C(N)=O)[C@@H](C)O)[C@@H](C)CC)C(C)C)[C@@H](C)O [compound 241] (H-GCRTGTCTVQRLAHQIYQFTDKFKDNVAPRSKISPQTA-NH2; disulfide 2-7; N-terminus assumed) | 0.900 | –
CC[C@H](C)[C@H](NC(=O)[C@H](CCC(N)=O)NC(=O)[C@H](Cc1c[nH]cn1)NC(=O)[C@H](C)NC(=O)[C@H](CC(C)C)NC(=O)[C@H](CCCNC(=N)N)NC(=O)[C@H](CCC(N)=O)NC(=O)[C@@H](NC(=O)[C@@H](NC(=O)[C@@H]1CSSC[C@H](NC(=O)CN)C(=O)N[C@@H](CCCNC(=N)N)C(=O)N[C@@H]([C@@H](C)O)C(=O)NCC(=O)N[C@@H]([C@@H](C)O)C(=O)N1)[C@@H](C)O)C(C)C)C(=O)N[C@@H](Cc1ccc(O)cc1)C(=O)N[C@@H](CCC(N)=O)C(=O)N[C@@H](Cc1ccccc1)C(=O)N[C@H](C(=O)N[C@@H](CC(=O)O)C(=O)N[C@@H](CCCCN)C(=O)N[C@@H](CC(=O)O)C(=O)N[C@@H](CCCCN)C(=O)N[C@@H](CC(=O)O)C(=O)N[C@@H](CC(N)=O)C(=O)N[C@H](C(=O)N[C@@H](C)C(=O)N1CCC[C@H]1C(=O)N[C@@H](CCCNC(=N)N)C(=O)N[C@@H](CO)C(=O)N[C@@H](CC(N)=O)C(=O)N[C@H](C(=O)N[C@@H](CO)C(=O)N1CCC[C@H]1C(=O)N[C@@H](CC(N)=O)C(=O)NCC(=O)N[C@@H](Cc1ccc(O)cc1)C(N)=O)C(C)C)C(C)C)[C@@H](C)O [compound 172] (H-GCRTGTCTVQRLAHQIYQFTDKDKDNVAPRSNVSPNGY-NH2; disulfide 2-7; N-terminus assumed) | 13.900 | –
